Data published in publication PMC4292808 (Journal of Medicinal Chemistry, 2014).

Experiments:
[1] = system: signaling in Gen2.2 cells; test: CL097; type: cell-based; settings: human Gen2.2 cells, 1 μM, 1 h pretreatment
TAK1 [2] = target: T1, TAK1 (Homo sapiens, UniProt O43318); test: biochemical
T1 sequence (O43318 1-303 limits assumed): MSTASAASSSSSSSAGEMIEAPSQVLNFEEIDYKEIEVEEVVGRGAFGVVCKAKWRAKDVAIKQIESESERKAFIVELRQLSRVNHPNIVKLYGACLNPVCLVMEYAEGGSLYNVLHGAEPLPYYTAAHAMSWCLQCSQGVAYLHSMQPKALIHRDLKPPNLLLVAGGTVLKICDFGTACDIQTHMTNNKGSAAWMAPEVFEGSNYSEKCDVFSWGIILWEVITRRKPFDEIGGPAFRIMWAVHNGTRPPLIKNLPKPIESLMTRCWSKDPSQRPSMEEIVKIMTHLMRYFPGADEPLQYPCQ

[3] = system: phosphorylation of p105, p38 and JNK1/2 in MEFs; test: IL-1α-induced signaling, Western blot; type: cell-based, mouse; settings: MEFs stimulated with IL-1α
[4] = system: phosphorylation of p105, p38 and JNK1/2 in 293 IL-1R cells; test: IL-1α-induced signaling, Western blot; type: cell-based; settings: human 293 IL-1R cells stimulated with IL-1α
[5] = In vivo pharmacokinetic studies; settings: male, Swiss albino, mouse, plasma, iv, 1 mg/kg
[6] = system: phosphorylation of IKKα/β and degradation of IκB-α in L929 cells; test: TNFα-induced NF-κB signaling, Western blot; type: cell-based, mouse
[7] = system: BCR-ABL-dependent Ba/F3 cells; test: Ba/F3 cell proliferation assay; type: cell-based; settings: Mus musculus, BaF3, read-out: cell growth inhibition
TAK1 [8] = target: T2, TAK1 (Homo sapiens, UniProt O43318); test: KiNativ HUH7 lysate; type: binding; settings: in words
T2 sequence (O43318 1-606): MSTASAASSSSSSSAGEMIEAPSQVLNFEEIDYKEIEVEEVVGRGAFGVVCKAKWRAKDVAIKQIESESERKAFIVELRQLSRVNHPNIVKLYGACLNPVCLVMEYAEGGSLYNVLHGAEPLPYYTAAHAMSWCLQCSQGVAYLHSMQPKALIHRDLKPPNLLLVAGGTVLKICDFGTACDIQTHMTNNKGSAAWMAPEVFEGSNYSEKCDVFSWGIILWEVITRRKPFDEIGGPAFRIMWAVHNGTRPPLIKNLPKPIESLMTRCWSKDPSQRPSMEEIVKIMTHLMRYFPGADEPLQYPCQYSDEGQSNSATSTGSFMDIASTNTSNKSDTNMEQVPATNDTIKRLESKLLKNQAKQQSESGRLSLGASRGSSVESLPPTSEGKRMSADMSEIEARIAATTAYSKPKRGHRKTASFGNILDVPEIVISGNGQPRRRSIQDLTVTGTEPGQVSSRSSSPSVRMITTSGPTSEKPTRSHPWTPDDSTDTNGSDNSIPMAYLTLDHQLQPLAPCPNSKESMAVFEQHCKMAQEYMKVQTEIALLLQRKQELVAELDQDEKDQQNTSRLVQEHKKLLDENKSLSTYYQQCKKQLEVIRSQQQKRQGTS

MAP4K2 = target: T3, MAP4K2 (Homo sapiens, UniProt Q12851); test: KiNativ HUH7 lysate; type: binding; settings: in words
T3 sequence (Q12851 1-820): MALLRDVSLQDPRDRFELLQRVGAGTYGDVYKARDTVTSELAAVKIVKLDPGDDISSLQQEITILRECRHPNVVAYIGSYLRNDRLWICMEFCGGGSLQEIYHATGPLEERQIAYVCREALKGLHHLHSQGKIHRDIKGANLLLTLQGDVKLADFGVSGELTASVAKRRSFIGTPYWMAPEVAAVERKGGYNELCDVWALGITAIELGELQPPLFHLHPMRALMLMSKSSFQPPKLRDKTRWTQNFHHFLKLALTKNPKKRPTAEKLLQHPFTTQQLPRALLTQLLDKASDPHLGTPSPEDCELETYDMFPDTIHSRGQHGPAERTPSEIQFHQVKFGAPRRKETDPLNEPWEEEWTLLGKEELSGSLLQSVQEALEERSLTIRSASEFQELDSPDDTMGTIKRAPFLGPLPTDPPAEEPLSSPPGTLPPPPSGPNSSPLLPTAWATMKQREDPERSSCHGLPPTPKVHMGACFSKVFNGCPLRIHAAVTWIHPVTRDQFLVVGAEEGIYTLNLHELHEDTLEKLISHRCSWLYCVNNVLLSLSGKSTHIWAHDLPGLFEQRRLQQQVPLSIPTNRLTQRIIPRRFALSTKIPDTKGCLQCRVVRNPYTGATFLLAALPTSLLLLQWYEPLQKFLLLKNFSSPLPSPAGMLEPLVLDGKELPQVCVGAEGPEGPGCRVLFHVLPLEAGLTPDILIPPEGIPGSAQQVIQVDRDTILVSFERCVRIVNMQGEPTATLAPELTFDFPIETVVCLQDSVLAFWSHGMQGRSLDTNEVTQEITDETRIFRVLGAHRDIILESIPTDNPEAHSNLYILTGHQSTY

[9] = system: phosphorylation of p38 MAPK and SMAD2 in WT MEFs; type: cell-based, mouse; settings: WT and TAK1-deficient MEFs
[10] = system: phosphorylation of p38 MAPK in TAK1-deficient MEFs; test: IL-1 and TGFβ-induced signaling in TAK1-deficient MEFs, Western blot; type: cell-based, mouse; settings: 500 nM
p38α = p38α (Homo sapiens, UniProt Q16539); test: SelectScreen enzymatic assay; type: biochemical; settings: KiNativ and enzymatic assays, in words
Sequence of p38α (Q16539 whole entry): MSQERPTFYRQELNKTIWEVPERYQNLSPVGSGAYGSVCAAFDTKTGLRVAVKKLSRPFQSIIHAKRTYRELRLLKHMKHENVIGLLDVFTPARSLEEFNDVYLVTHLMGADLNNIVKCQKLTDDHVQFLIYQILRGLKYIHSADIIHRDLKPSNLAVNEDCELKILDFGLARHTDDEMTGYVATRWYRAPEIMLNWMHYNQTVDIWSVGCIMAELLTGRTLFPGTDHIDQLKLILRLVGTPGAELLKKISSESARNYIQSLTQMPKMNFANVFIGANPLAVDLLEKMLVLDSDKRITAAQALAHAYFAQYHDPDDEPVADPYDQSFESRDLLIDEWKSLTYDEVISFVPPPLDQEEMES

[11] = 100 nM, 30 min pretreatment, TNFα 5 min, Western blot

CCN1CCN(Cc2ccc(NC(=O)c3ccc(C)c(Oc4ccnc5[nH]ccc45)c3)cc2C(F)(F)F)CC1 [Compound 1, 3-((1H-Pyrrolo[2,3-b]pyridin-4-yl)oxy)-N-(4-((4-ethylpiperazin-1-yl)methyl)-3-(trifluoromethyl)phenyl)-4-methylbenzamide]
CL097-induced signaling [1]: blocked signaling | IC50 (TAK1 [2]): 15 nM | phosphorylation levels of p105, p38 and JNK1/2 [3]: inhibited in a dose-dependent manner | phosphorylation levels of p105, p38 and JNK1/2 [4]: inhibited in a dose-dependent manner | half-life [5]: 2 h | effect on TNFα-induced phosphorylation of IKKα/β and degradation of IκB-α [6, 11]: comparable cellular potency

CCN1CCN(Cc2ccc(NC(=O)c3ccc(C)c(/C=C/c4cnc5[nH]ccc5c4OC)c3)cc2C(F)(F)F)CC1 [Compound 2, (E)-N-(4-((4-Ethylpiperazin-1-yl)methyl)-3-(trifluoromethyl)phenyl)-3-(2-(4-methoxy-1H-pyrrolo[2,3-b]pyridin-5-yl)vinyl)-4-methylbenzamide]
inhibition at 0.01 µM [7]: > 50% | effect on TNFα-induced phosphorylation of IKKα/β and degradation of IκB-α [6, 11]: comparable cellular potency

CCN1CCN(Cc2ccc(NC(=O)c3ccc(C)c(Oc4ncnc5[nH]ccc45)c3)cc2C(F)(F)F)CC1 [Compound 3]
clearance at 24 h [5]: 65.8 mL/min/kg

CCN1CCN(Cc2ccc(NC(=O)c3ccc(C)c(Oc4ncnc5[nH]ncc45)c3)cc2C(F)(F)F)CC1 [Compound 4]
clearance at 24 h [5]: 99.2 mL/min/kg

CCN1CCN(Cc2ccc(NC(=O)c3ccc(C)c(Oc4ncnc5[nH]c(C)cc45)c3)cc2C(F)(F)F)CC1 [Compound 5]
clearance at 24 h [5]: 26.5 mL/min/kg

CCN1CCN(Cc2ccc(NC(=O)c3ccc(C)c(Oc4ccnc(C(=O)NC)c4)c3)cc2C(F)(F)F)CC1 [Compound 9]
activity against TAK1 (TAK1 [8]): inactive | activity against MAP4K2 (MAP4K2): inactive

CCN1CCN(Cc2ccc(NC(=O)c3cccc(Oc4ccnc5[nH]ccc45)c3)cc2C(F)(F)F)CC1 [Compound 10]
inhibition at 0.01 µM [7]: > 50%

CCN1CCN(Cc2ccc(C(=O)Nc3ccc(C)c(Oc4ccnc5[nH]ccc45)c3)cc2C(F)(F)F)CC1 [Compound 11]
effect on TNFα-induced phosphorylation of IKKα/β and degradation of IκB-α [6, 11]: no effect

Cc1cn(-c2cc(NC(=O)c3ccc(C)c(Oc4ccnc5[nH]ccc45)c3)cc(C(F)(F)F)c2)cn1 [Compound 12]
effect on TNFα-induced phosphorylation of IKKα/β and degradation of IκB-α [6, 11]: no effect

CNc1cc(Oc2cc(C(=O)Nc3cc(-n4cnc(C)c4)cc(C(F)(F)F)c3)ccc2C)ncn1 [Compound 16]
CL097-induced signaling [1]: not able to block | IL-1 and TGFβ-induced p38 MAPK phosphorylation [9]: dose-dependent inhibition | TGFβ-induced phosphorylation of SMAD2 [9]: did not inhibit | IL-1-induced phosphorylation of p38 [10]: complete inhibition | effect on TNFα-induced phosphorylation of IKKα/β and degradation of IκB-α [6, 11]: no effect

CNc1cc(Oc2cc(C(=O)Nc3cc(N4CCN(C)CC4)cc(C(F)(F)F)c3)ccc2C)ncn1 [Compound 17]
IL-1 and TGFβ-induced p38 MAPK phosphorylation [9]: dose-dependent inhibition | TGFβ-induced phosphorylation of SMAD2 [9]: did not inhibit | IL-1-induced phosphorylation of p38 [10]: complete inhibition | effect on TNFα-induced phosphorylation of IKKα/β and degradation of IκB-α [6, 11]: no effect | effect on TNFα-induced phosphorylation of IKKα/β and degradation of IκB-α ([6]; concentrations up to 1 μM): not very effective

CCN1CCN(Cc2ccc(NC(=O)c3cccc(CCc4cnc5[nH]ccc5c4OC)c3)cc2C(F)(F)F)CC1 [Compound 23]
activity against p38α (p38α): inactive

CCN1CCN(Cc2ccc(NC(=O)c3cccc(/C=C/c4cnc5[nH]ccc5c4OC)c3)cc2C(F)(F)F)CC1 [Compound 24]
activity against p38α (p38α): inactive

COc1cc(O)c2c(c1)/C=C/C[C@H](O)[C@H](O)C(=O)/C=C\C[C@H](C)OC2=O [Compound 37, 5Z-7-oxozeaenol, reference compound]
TGFβ-induced phosphorylation of SMAD2 [9]: inhibited phosphorylation of both p38 and SMAD2

C[S+]([O-])c1ccc(-c2nc(-c3ccc(F)cc3)c(-c3ccncc3)[nH]2)cc1 (centres unmarked) [Compound 38, SB203580, reference compound]
effect on TNFα-induced phosphorylation of IKKα/β and degradation of IκB-α [6, 11]: no effect

CNC(=O)c1ccc(C)c(-n2c(C)cc(OCc3ccc(F)cc3F)c(Br)c2=O)c1 [Compound 39, PH-797804, reference compound]
effect on TNFα-induced phosphorylation of IKKα/β and degradation of IκB-α [6, 11]: no effect

CCN1CCN(Cc2ccc(NC(=O)c3ccc(OC)c(Oc4ncnc5[nH]ccc45)c3)cc2C(F)(F)F)CC1 [S1]
CL097-induced signaling [1]: only partially inhibited signaling
